Data as given in patent publication US20220323383A1, “SMALL-MOLECULAR ADJUVANTS AND IMPLEMENTATIONS THEREOF” (JAWAHARLAL NEHRU CENTRE FOR ADVANCED SCIENTIFIC RESEARCH, priority 2019, published 2022).
“And” between values parts separate entries of the source, which are not always exact repeats. Equal entries are not always repeated. Where two headings read alike, the source gives them in different places.

What was measured:
Format in all cases: cell-based
[1] = tested on: A. baumannii R674; assay: Individual antibacterial activity (MIC) of adjuvants; conditions: adjuvant alone; A. baumannii R674
Protocol: (§1) The combination efficacy with antibiotics from different classes and individual antibacterial activity of the synthesized adjuvants was evaluated against the above mentioned MDR and NDM-1 strains of Gram-negative bacteria. All the bacteria were grown in peptone. The bacterial samples were freeze dried and stored at −80° C. 3 μl of these stocks were added to 3 mL of peptone and the culture was grown for 6 h at 37° C. prior to the experiments.
(§2) All synthesized compounds were assayed for their antibacterial activity in combination with antibiotics in a modified chequerboard micro-dilution broth format. Stock solutions were made by serially diluting the compounds using autoclaved millipore water. The bacterial freeze dried stock samples were stored at −80° C. About 3 μL of these stocks were added to about 3 mL of the respective broth and the culture was grown for about 6 h at about 37° C. with prior to the experiments. This 6 h grown culture gives about 10^8 cfu/mL in case of A. baumannii R674, P. aeruginosa R590, E. coli R3336 and K. pneumoniae R3934 which were determined by spread plating method. This 6 h grown culture was diluted to give effective cell concentration of 10^5 cfu/mL, and then used for the chequerboard assay. Adjuvants and antibiotics were serially diluted in two-fold, in sterile millipore water. 25 μL of these serial dilutions of the antibiotics and 25 μL of compounds were added to the wells of 96 well plate followed by the addition of about 150 μL of bacterial solution (˜10^5 cfu/mL). The plates were then incubated at about 37° C., 150 rpm in the incubator and O.D at 600 nm was recorded at 24 h using TECAN (Infinite series, M200 pro) Plate Reader. The wells with similar OD as the media control contained the required concentration of the antibiotic and adjuvant for antibacterial efficacy. The potentiation ability of the adjuvants was determined by calculating the potentiation factor and the Fractional Inhibitory concentration (FIC) index. Fractional Inhibitory Concentration (FIC) is expressed as, FIC=[X]/MICX, where [X] is the lowest inhibitory concentration of antibiotic in the presence of the adjuvant. Whereas FIC index is expressed as, FICI=FICantibiotic+FICadjuvant. The values of FIC index give an insight about the nature of the combination. Potentiation factor which means fold-reduction in the MIC of the antibiotic, when used in combination with the adjuvant was also determined. Potentiation factor=[Minimum inhibitory concentration (MIC) of antibiotic in absence of adjuvant]/[MIC of antibiotic in presence of adjuvant]. […] The combination efficacies of adjuvants with various antibiotics are furnished in Table 1. It should be noted that various other resistant strains of bacteria (Gram-positive and Gram-negative) can be tested with a number of other antibiotics to check the potentiation capacity of the adjuvants.

[2] = tested on: P. aeruginosa R590; assay: as above; conditions: adjuvant alone; P. aeruginosa R590
Protocol: as §1, §2

[3] = tested on: A. baumannii R674; assay: Chequerboard combination efficacy of adjuvant with antibiotics
Protocol: (§3) All the solvents were of reagent grade, which were distilled and dried before its use. All the reagents were purchased from Sigma-Aldrich, Alfa-Aesar, S.D. Fine, Avra and Spectrochem, and were used without further purification. Analytical thin layer chromatography (TLC) was performed on E. Merck TLC plates pre-coated with silica gel 60 F254 and visualization was carried out using UV light and Iodine. Column chromatography was performed on silica gel (60-120 mesh) using different ratio of chloroform and methanol solvent system. Nuclear magnetic resonance spectra were recorded on Bruker (AV-400) 400 MHz spectrometer in deuterated solvents. Mass spectra were obtained using 6538-UHD Accurate mass Q-TOF LC-MS instrument. For optical density measurement during bacteriology experiments, Tecan Infinite Pro series M200 Microplate Reader was used. Bacterial strains, A. baumannii (R674), P. aeruginosa (R590), E. coli (R3336) and K. pneumoniae (R3934) were used for the studies.
as §1, §2

[4] = tested on: P. aeruginosa R590; assay: as above
Protocol: as §3, §1, §2

[5] = tested on: human RBCs; assay: Haemolytic activity; conditions: concentration at which 50% of human blood cells are lysed; 1 h at 37° C.
Protocol: Erythrocytes were isolated from freshly drawn, heparanized human blood and re-suspended to 5 vol % in PBS (pH 7.4). In a 96-well microtiter plate, 150 μl of erythrocyte suspension was added to 50 μl of serially diluted compound. Two controls were made, one without compound and other with 50 μl of 1 vol % solution of Triton X-100. The plate was incubated for 1 h at 37° C. The plate was then centrifuged at 3,500 rpm for 5 min, 100 μl of the supernatant from each well was transferred to a fresh 96-well microtiter plate, and A540 was measured. Percentage of hemolysis was determined as (A−A0)/(Atotal−A0)×100, where A is the absorbance of the test well, A0 the absorbance of the negative controls (without compound), and Atotal the absorbance of 100% hemolysis wells (with Triton X-100), all at 540 nm.
Toxicity studies of the compounds were done on freshly drawn human RBCs. Toxicity of the compounds were defined by their HC50 values (Table 2), i.e. the concentration of compound at which 50% of the blood cells are lysed.

[6] = antibiotic Rifampicin, P. aeruginosa R590
[7] = antibiotic Tetracycline, P. aeruginosa R590

## NCCCN(CCCN)C(=O)Cc1cccc2ccccc12.O=C(O)C(F)(F)F.O=C(O)C(F)(F)F [Compound 2, N,N-bis((3-amino)propyl)naphthyl ethanamide bis(trifluoroacetate)]
[1]
  MIC against clinical isolates of bacteria: >512 µg/mL
[2]
  MIC against clinical isolates of bacteria: >512 µg/mL
[3]; antibiotic Rifampicin
  FICI: <0.375
  MIC of antibiotic in presence of adjuvant: 8 µg/mL
  Potentiation factor: 8
[3]; antibiotic Tetracycline
  FICI: <0.625
  MIC of antibiotic in presence of adjuvant: 64 µg/mL
  Potentiation factor: 2
[4]; [6]
  FICI: <0.375
  MIC of antibiotic in presence of adjuvant: 16 µg/mL
  Potentiation factor: 8
[4]; [7]
  FICI: <0.5
  MIC of antibiotic in presence of adjuvant: 64 µg/mL
  Potentiation factor: 4
[5]
  HC50: >1024 µg/mL

## NCCCC[C@H](N)C(=O)NCCCN(CCCNC(=O)[C@@H](N)CCCCN)C(=O)Cc1cccc2ccccc12 [Compound 7, N,N-bis-[(6-(^LLys)amido)propyl] naphthyl ethanamide tetrakis(trifluoroacetate)]
[1]
  MIC against clinical isolates of bacteria: >512 µg/mL
[2]
  MIC against clinical isolates of bacteria: >512 µg/mL
[3]; antibiotic Rifampicin
  FICI: <0.25
  MIC of antibiotic in presence of adjuvant: 8 µg/mL
  Potentiation factor: 8
[3]; antibiotic Tetracycline
  FICI: <0.5
  MIC of antibiotic in presence of adjuvant: 32 µg/mL
  Potentiation factor: 4
[4]; [6]
  FICI: <0.28
  MIC of antibiotic in presence of adjuvant: 4 µg/mL
  Potentiation factor: 32
[4]; [7]
  FICI: <0.5
  MIC of antibiotic in presence of adjuvant: 64 µg/mL
  Potentiation factor: 4
[5]
  HC50: >1024 µg/mL

## NCCCN(CCCN)CC(=O)NC1C2CC3CC(C2)CC1C3.O=C(O)C(F)(F)F.O=C(O)C(F)(F)F.O=C(O)C(F)(F)F (centres unmarked) [Compound 6, N-(Adamantan-2-yl)-2-[N′,N′-{bis-(3-amino)propyl}amino] ethanamide tris(trifluoroacetate)]
[1]
  MIC against clinical isolates of bacteria: 512 µg/mL
[2]
  MIC against clinical isolates of bacteria: 512 µg/mL
[3]; antibiotic Rifampicin
  FICI: <0.06
  MIC of antibiotic in presence of adjuvant: <0.25 µg/mL
  Potentiation factor: >256
[3]; antibiotic Tetracycline
  MIC of antibiotic in presence of adjuvant: >64 µg/mL
  Potentiation factor: <2
[4]; [6]
  FICI: <0.06
  MIC of antibiotic in presence of adjuvant: <0.25 µg/mL
  Potentiation factor: >512
[4]; [7]
  MIC of antibiotic in presence of adjuvant: >64 µg/mL
  Potentiation factor: <4
[5]
  HC50: >1024 µg/mL

## NCCCN(CCCN)C(=O)c1ccc(-c2ccccc2)cc1.O=C(O)C(F)(F)F.O=C(O)C(F)(F)F [Compound 3]
[1]
  MIC against clinical isolates of bacteria: >512 µg/mL
[2]
  MIC against clinical isolates of bacteria: >512 µg/mL
[3]; antibiotic Rifampicin
  FICI: <0.5
  MIC of antibiotic in presence of adjuvant: 16 µg/mL
  Potentiation factor: 4
[3]; antibiotic Tetracycline
  MIC of antibiotic in presence of adjuvant: >64 µg/mL
  Potentiation factor: <2
[4]
  FICI: <0.5
  MIC of antibiotic in presence of adjuvant: 32 µg/mL and >64 µg/mL
[4]; [6]
  Potentiation factor: 4
[4]; [7]
  Potentiation factor: <4
[5]
  HC50: >1024 µg/mL

## NCCCC[C@H](N)C(=O)NCCCN(CCCNC(=O)[C@@H](N)CCCCN)C(=O)CC(c1ccccc1)c1ccccc1 [Compound 8, N,N-bis-[(6-(^LLys)amido)propyl] 3,3-diphenyl propanamide tetrakis(trifluoroacetate)]
[1]
  MIC against clinical isolates of bacteria: >512 µg/mL
[2]
  MIC against clinical isolates of bacteria: >512 µg/mL
[3]; antibiotic Rifampicin
  FICI: <0.19
  MIC of antibiotic in presence of adjuvant: 4 µg/mL
  Potentiation factor: 16
[3]; antibiotic Tetracycline
  MIC of antibiotic in presence of adjuvant: >64 µg/mL
  Potentiation factor: <2
[4]; [6]
  FICI: <0.14
  MIC of antibiotic in presence of adjuvant: 2 µg/mL
  Potentiation factor: 64
[4]; [7]
  FICI: <0.375
  MIC of antibiotic in presence of adjuvant: 64 µg/mL
  Potentiation factor: 4
[5]
  HC50: >1024 µg/mL

## NCCCC[C@H](N)C(=O)NCCCN(CCCNC(=O)[C@@H](N)CCCCN)CC(=O)NC1C2CC3CC(C2)CC1C3.O=C(O)C(F)(F)F.O=C(O)C(F)(F)F.O=C(O)C(F)(F)F.O=C(O)C(F)(F)F.O=C(O)C(F)(F)F (some centres unmarked) [Compound 9]
[1]
  MIC against clinical isolates of bacteria: >512 µg/mL
[2]
  MIC against clinical isolates of bacteria: >512 µg/mL
[3]; antibiotic Rifampicin
  FICI: <0.14
  MIC of antibiotic in presence of adjuvant: 1 µg/mL
  Potentiation factor: 64
[3]; antibiotic Tetracycline
  FICI: <0.25
  MIC of antibiotic in presence of adjuvant: 16 µg/mL
  Potentiation factor: 8
[4]; [6]
  FICI: <0.13
  MIC of antibiotic in presence of adjuvant: 0.5 µg/mL
  Potentiation factor: 256
[4]; [7]
  FICI: <0.19
  MIC of antibiotic in presence of adjuvant: 16 µg/mL
  Potentiation factor: 16
[5]
  HC50: >1024 µg/mL

## CC(C)(C)OC(=O)NC(Cc1c[nH]c2ccccc12)C(=O)N(CCCN)CCCN.O=C(O)C(F)(F)F.O=C(O)C(F)(F)F.O=C(O)C(F)(F)F (centres unmarked) [Compound 5, N,N-bis((3-amino)propyl) 2′-(Boc-amino), 3′-indolo propanamide tris(trifluoroacetate)]
[1]
  MIC against clinical isolates of bacteria: >512 µg/mL
[2]
  MIC against clinical isolates of bacteria: >512 µg/mL
[3]; antibiotic Rifampicin
  FICI: <0.375
  MIC of antibiotic in presence of adjuvant: 8 µg/mL
  Potentiation factor: 8
[3]; antibiotic Tetracycline
  Potentiation factor: <2
[4]; [6]
  FICI: <0.3125
  MIC of antibiotic in presence of adjuvant: 8 µg/mL
  Potentiation factor: 16
[4]; [7]
  MIC of antibiotic in presence of adjuvant: >64 µg/mL
  Potentiation factor: <4
[5]
  HC50: >1024 µg/mL

## NCCCN(CCCN)C(=O)CC(c1ccccc1)c1ccccc1.O=C(O)C(F)(F)F.O=C(O)C(F)(F)F [Compound 4, N,N-bis((3-amino)propyl)3,3-diphenyl propanamide bis(trifluoroacetate)]
[1]
  MIC against clinical isolates of bacteria: >512 µg/mL
[2]
  MIC against clinical isolates of bacteria: >512 µg/mL
[3]; antibiotic Rifampicin
  FICI: <0.26
  MIC of antibiotic in presence of adjuvant: 1 µg/mL
  Potentiation factor: 64
[3]; antibiotic Tetracycline
  FICI: <0.5
  MIC of antibiotic in presence of adjuvant: 32 µg/mL
  Potentiation factor: 4
[4]; [6]
  FICI: <0.28
  MIC of antibiotic in presence of adjuvant: 4 µg/mL
  Potentiation factor: 32
[4]; [7]
  FICI: <0.5
  MIC of antibiotic in presence of adjuvant: 64 µg/mL
  Potentiation factor: 4
[5]
  HC50: >1024 µg/mL

## NCCCN(CCCN)C(=O)Cc1ccccc1.O=C(O)C(F)(F)F.O=C(O)C(F)(F)F [Compound 1, N,N-bis((3-amino)propyl)phenyl ethanamide bis(trifluoroacetate)]
[1]
  MIC against clinical isolates of bacteria: >512 µg/mL
[3]; antibiotic Rifampicin
  FICI: <0.75
  MIC of antibiotic in presence of adjuvant: 32 µg/mL
  Potentiation factor: 2
[3]; antibiotic Tetracycline
  FICI: <0.5
  MIC of antibiotic in presence of adjuvant: 64 µg/mL
  Potentiation factor: 2
[5]
  HC50: >1024 µg/mL
